Laboratory results published in US11766414B2, “Compositions, delivery systems, and methods useful in tumor therapy” (Indi Molecular, Inc., priority 2020, dated 2023).
pEC50: −log10 of the molar value. Values belong to the molecule of their own block, whether it stands above or below them. Starred links: 1 amine or outer side, 2 acyl side, 3 side chain; linkers in the order of their positions; H or OH if unused. Positions of bridges follow the written chain, without caps; N, C: chain ends. Non-standard residues stand in square brackets, D forms with d. Residues, ends and D or L forms follow the SMILES beside them. Triazole bridges read from a SMILES are 1,4-linked. *: point of attachment. DOTA = O=C(O)CN1CCN(CC(=O)O)CCN(CC(=O)*)CCN(CC(=O)O)CC1; Pteroyl = Nc1nc2ncc(CNc3ccc(C(=O)*)cc3)nc2c(=O)[nH]1; Biotin = O=C1N[C@H]2[C@H](CS[C@H]2CCCCC(=O)*)N1; Lys(N3) = [N-]=[N+]=NCCCC[C@H](N)C(=O)O; γGlu = O=C(O)[C@H](CCC(=O)[*:2])N[*:1]; AEEEA = NCCOCCOCCOCC(=O)O; Pra = C#CC[C@H](N)C(=O)O

Tests used:
in vivo = conditions: female, NSG, mouse, iv, total radioactivity
Protocol: (§1) Water and food were provided ad libitum. […] Tumor growth was monitored by caliper measurements.
CT scans were acquired for anatomical reference. Imaging was performed on a GENISYS^8 microPET/CT small animal scanner.
NSG mice were engrafted with OVCAR3 cells subcutaneously. […] Absorption of the radiotracer by highly perfused organs including the lungs indicate systemic circulation of the compound. Compound clearance is driven at the very early timepoints by a combination of hepatic and renal excretion. Over time, clearance is exclusively renal with retention of the compound in the tumor, and kidney.

[1] = tested on: OVCAR3 FOLR1+ cells (PC-3 FOLR1− cells as negative line); test: Flow cytometry binding to FOLR1 (+) and FOLR1 (−) cell lines; assay type: cell-based, human; conditions: for binding selectivity for FOLR1 (+) cells over FOLR1 (−) cells: OVCAR3 vs PC-3, flow cytometry
Protocol: Both the kyeet (SEQ ID NO:9) and hshta (SEQ ID NO:6)-derived biligands were tested by flow cytometry for binding to FOLR1 (+) and FOLR1 (−) cell lines (FIGS. 6 and 7). The human ovarian adenocarcinoma-derived cell line OVCAR3 has robust FOLR1 expression and was selected as the FOLR1 (+) cell line. The human prostate adenocarcinoma-derived cell line PC-3 was selected as a FOLR1 (−) cell line.

FOLR1 [2] = target: T1, FOLR1 (Homo sapiens, UniProt P15328); test: ELISA assay of FOLR1 binding; conditions: for pEC50: read-out: EC50 (ELISA, FOLR1)
T1 sequence (P15328 25-234): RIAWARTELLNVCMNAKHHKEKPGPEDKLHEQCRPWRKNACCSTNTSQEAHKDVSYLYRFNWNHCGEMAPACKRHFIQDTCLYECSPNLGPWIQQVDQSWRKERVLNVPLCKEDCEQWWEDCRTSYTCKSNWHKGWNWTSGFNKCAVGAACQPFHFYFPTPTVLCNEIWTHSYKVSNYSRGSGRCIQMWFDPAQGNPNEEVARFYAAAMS
Description: FIG. 5 is a diagram of ELISA assay of FOLR1 binding of heterobiligands.

[3] = tested on: OVCAR3 (FOLR1+) tumor bearing NSG mice; conditions: mouse, in vivo
Protocol: Female, 7-week-old NSG mice were housed under pathogen-free conditions. Water and food were provided ad libitum. To create mice with FOLR1+ ovarian xenograft tumors, mice were injected subcutaneously with OVCAR3 cells (1×10^7 cells per mouse) resuspended in 50% Matrigel in PBS into the shoulder region. Tumor growth was monitored by caliper measurements. OVCAR3 is a human ovarian adenocarcinoma known to over-express FOLR1.
^68Ga PET imaging was used to study in vivo biodistribution of heterobiligands in non-tumor bearing (healthy) mice and OVCAR3 tumor bearing mice. 100-200 μCi of [^68Ga]DOTA-labeled heterobiligand was administered intravenously (i.v.) via the tail vein of each mouse. […]
Evaluation of a folate-hshta (SEQ ID NO:6) Nterm heterobiligand bearing both an albumin binder and DOTA chelator in PET was a priority, given that DOTA can accommodate both ^68Ga for imaging and ^177Lu for radiotherapy. […] The time-course biodistribution of ^68Ga-labeled folate-hshta-PEG3-Lys(MPBA)-Lys(DOTA) (SEQ ID NO:6) (compound #2809) was calculated to quantify the uptake in major organs including the tumor (FIG. 17). […] Larger tumors (490 mm^3) were also evaluated with the ^68Ga-chelated PET probe.
Biodistribution was initially evaluated by PET imaging, as the time frame for a significant portion of clearance is roughly similar to the time frame of PET imaging experiments. […]

[4] = Maximum tolerated dose (MTD) tolerability study
Protocol: In order to establish a maximum tolerated dose (MTD), a tolerability study was undertaken testing increasing amounts of the 177-Lu heterobiligand 7327 (folate-hshta-Gly-Phe-Lys(DOTA)). Animals were monitored for signs of toxicity and weighed twice weekly. […] The second and third doses were administered 21 days following the previous dose.
Efforts were undertaken to evaluate 177-Lu 6305 (folate-hshta-Lys(MPBA)-Gly-Phe-Lys(DOTA)), a compound with a brush border cleavable linker in addition to an albumin binder. […] Two separate MTD experiments were undertaken. […] A second experiment interrogated lower doses.
In order to establish a MTD, dose range finding studies were undertaken testing increasing amounts of Indi ^177Lu-7327 in healthy, non-tumor bearing female NSG mice using IV administration (FIGS. 34 and 35). Mouse body weight and behavior were monitored. […] The second and third doses were administered 21 days following the previous dose.

FOLR1 [5] = target: T1, FOLR1; test: Folic acid competition ELISA; assay type: binding
Protocol: A competition experiment was conducted to further understand the binding kinetics of the lead heterobiligand (folate-hshta (SEQ ID NO:6) Nterm heterobiligand).

OVCAR3 xenograft [6] = test: 177Lu FOLR1 radioligand therapy of OVCAR3 xenografts; assay type: in vivo, mouse
OVCAR3 xenograft [7] = test: as above; assay type: in vivo, mouse; remark: listed apart in the source
Protocol: as §1
OVCAR3 tumor bearing mice were used to study FOLR1-directed radioligand therapy (RLT) for treatment of ovarian cancer. Animals were administered a single dose of heterobiligand (vehicle control) or 111, 37, 18.5, 9.25, or 3.7 MBq [^177Lu]DOTA-labeled heterobiligand. Mice received the dose intravenously (i.v.) via the tail vein. To monitor the effect of the RLT, tumor size measurements were taken twice weekly and body weights were measured.
Single dose treatments at 18.5 MBq/nmol specific activity. OVCAR3 mouse model was used. 10^7 cell tumors were implanted in the mice one month before administration of ^177Lu-#6305. Five mice each were administered Cold #6305, 9.25 MBq Lu177-#6305, and 14.8 MBq Lu177-#6305, and two mice were administered 29.6 MBq Lu177-#6305. Tumor growth and body weight were then monitored.
Female NSG mice were implanted subcutaneously with OVCAR3 cells. Once tumors reached volumes of 200 mm^3, the animals were treated with 177-Lu 7327. Three treatment arms of 9.25 MBq, 14.8 MBq, and 29.6 MBq were studied.

Molecule: C[C@H](O)[C@H]1NC(=O)[C@@H](Cc2cnc[nH]2)NC(=O)[C@@H](CO)NC(=O)[C@@H](Cc2cnc[nH]2)NC(=O)[C@@H](NC(=O)CC[C@H](NC(=O)c2ccc(NCc3cnc4nc(N)[nH]c(=O)c4n3)cc2)C(=O)O)Cc2cn(nn2)CCCC[C@@H](C(=O)NCCOCCOCCOCC(=O)N[C@@H](CCCCNC(=O)CO/N=C/c2ccc([18F])cc2)C(N)=O)NC(=O)[C@@H](C)NC1=O
- tissue uptake per volume at 4 h (in vivo; accumulation in the tumor): ~4 %ID/mL
- tissue uptake per volume at 4 h (in vivo; radiotracer accumulation in the tumor): 3.5 to 5.5 %ID/mL

Molecule: C[C@H](O)[C@H]1NC(=O)[C@@H](Cc2cnc[nH]2)NC(=O)[C@@H](CO)NC(=O)[C@@H](Cc2cnc[nH]2)NC(=O)[C@@H](NC(=O)CC[C@H](NC(=O)c2ccc(NCc3cnc4nc(N)[nH]c(=O)c4n3)cc2)C(=O)O)Cc2cn(nn2)CCCC[C@@H](C(=O)NCC(=O)N[C@@H](Cc2ccccc2)C(=O)N[C@@H](CCCCNC(=O)CN2CCN(CC(=O)O)CCN(CC(=O)O)CCN(CC(=O)O)CC2)C(=O)O)NC(=O)[C@@H](C)NC1=O [Indi ^68Ga-7327, metal not drawn] ({Pteroyl-γGlu}-[Pra][dH][dS][dH][dT][dA][Lys(N3)]GFK(DOTA)-OH; triazole 1-7)
- kidney uptake (PET) [3]: significant reduction in kidney uptake

Molecule: C[C@H](O)[C@H]1NC(=O)[C@@H](CCC(=O)O)NC(=O)[C@@H](CCC(=O)O)NC(=O)[C@@H](Cc2ccc(O)cc2)NC(=O)[C@@H](CCCCN)NC(=O)[C@@H](NC(=O)[C@H](Cc2cn(CCOCCOCCOCCNC(=O)CC[C@H](NC(=O)c3ccc(NCc4cnc5nc(N)[nH]c(=O)c5n4)cc3)C(=O)O)nn2)NC(=O)CCOCCOCCOCCOCCOCCOCCOCCOCCOCCOCCNC(=O)CCOCCOCCOCCOCCOCCOCCOCCOCCOCCOCCNC(=O)CCCC[C@@H]2SC[C@@H]3NC(=O)N[C@@H]32)Cc2cn(nn2)CCCC[C@@H](C(N)=O)NC1=O [folate-kyeet heterobiligand]
- binding selectivity for FOLR1 (+) cells ([1]; 40 nM of the test article): Virtually complete selectivity
- binding selectivity for FOLR1 (+) cells over FOLR1 (−) cells [1]: high selectivity
- pEC50 (FOLR1 [2]): 9.83

Molecule: Folate-hshta-G-F-K(^177Lu-DOTA)-OH [^177Lu-#7327]
- tolerability ([4]; doses of 111 MBq and 185 MBq): not tolerated
- tolerability ([4]; doses of 111 MBq and 185 MBq, listed as Indi ^177Lu-7327): lost substantial body weight
- tolerability ([4]; repeated doses of 14.8, 22.2, 29.6, and 37 MBq, 21 days apart): well tolerated
- tolerated radioactive doses ([4]; three treatments, healthy non-tumor bearing female NSG mice): up to 111 MBq
- outcompeting native folate for receptor binding (FOLR1 [5]): approximately 500 fold
- body weight loss after second dose (OVCAR3 xenograft [6]; 9.25 MBq and 14.8 MBq arms, second dose 21 days after first): minimal
- tolerability of first dose (OVCAR3 xenograft [6]; 9.25 MBq, 14.8 MBq, and 29.6 MBq arms): well tolerated
- tumor sizes after additional treatment on day 24 (OVCAR3 xenograft [6]; 46.3, 74 and 148 MBq groups): shrinking tumor sizes
- tumor volumes (OVCAR3 xenograft [6]; 46.3 MBq group, elevated dose): stable tumor volumes
- decrease of tumor volumes, on average (OVCAR3 xenograft [6]; 74 MBq and 148 MBq arms, single elevated dose at 45 days post injection): 50%
- body weight (OVCAR3 xenograft [6]; 74 MBq and 148 MBq, elevated dose): modest body weight loss
- time to statistically significant differential between treated and control (OVCAR3 xenograft [6]; 74 MBq arm): 24 days post-injection
- body weight after second dose (OVCAR3 xenograft [6]; highest dose (29.6 MBq)): modest loss of body weight that stabilized and then rebounded
- tumor volume (OVCAR3 xenograft [6]; two doses at 74 MBq, 21 days apart, vs 0 MBq control): decrease in tumor volume
- tumor volume (OVCAR3 xenograft [6]; two doses, arms of 9.25, 14.8, and 29.6 MBq): dose dependent decrease in tumor volume
- tumor response (OVCAR3 xenograft [6]; two treatments at 29.6 MBq): tumor stasis
- tumor response (OVCAR3 xenograft [6]; two treatments at 74 MBq): Tumor stasis
- caliper-measured tumor volume (OVCAR3 xenograft [7]; 29.6 MBq arm, following the second dose): stabilized and then fell
- time to statistically significant differential between treated and untreated (OVCAR3 xenograft [7]; 29.6 MBq arm, p≤0.05): 12 days post injection
- loss of body weight (OVCAR3 xenograft [7]; 29.6 MBq dose, two doses): 5-10%
- body weights of treated mice (OVCAR3 xenograft [7]; (+/−10%)): normal body weights
- tumor response (OVCAR3 xenograft [7]; two treatments at 29.6 MBq followed by a third treatment at 74 MBq): Tumor regression

Second part, led by results:

- pEC50 (FOLR1 [2]): 9.55
Molecule: C[C@H](O)[C@H]1NC(=O)[C@@H](Cc2ccc(O)cc2)NC(=O)[C@@H](CCCNC(=N)N)NC(=O)[C@@H](CCC(=O)O)NC(=O)[C@@H](CC(=O)O)NC(=O)[C@@H](NC(=O)[C@H](Cc2cn(CCOCCOCCOCCNC(=O)CC[C@H](NC(=O)c3ccc(NCc4cnc5nc(N)[nH]c(=O)c5n4)cc3)C(=O)O)nn2)NC(=O)CCOCCOCCOCCOCCOCCOCCOCCOCCOCCOCCNC(=O)CCOCCOCCOCCOCCOCCOCCOCCOCCOCCOCCNC(=O)CCCC[C@@H]2SC[C@@H]3NC(=O)N[C@@H]32)Cc2cn(nn2)CCCC[C@@H](C(N)=O)NC1=O [Folate-deryt]
- binding selectivity for FOLR1 (+) cells over FOLR1 (−) cells [1]: excellent selectivity

- pEC50 (FOLR1 [2]): 9.97
Molecule: C[C@H](O)[C@H]1NC(=O)[C@@H](Cc2c[nH]cn2)NC(=O)[C@@H](CO)NC(=O)[C@@H](Cc2c[nH]cn2)NC(=O)[C@@H](NC(=O)[C@H](Cc2cn(CCOCCOCCOCCNC(=O)CC[C@H](NC(=O)c3ccc(NCc4cnc5nc(N)[nH]c(=O)c5n4)cc3)C(=O)O)nn2)NC(=O)CCOCCOCCOCCOCCOCCOCCOCCOCCOCCOCCNC(=O)CCOCCOCCOCCOCCOCCOCCOCCOCCOCCOCCNC(=O)CCCC[C@@H]2SC[C@@H]3NC(=O)N[C@@H]32)Cc2cn(nn2)CCCC[C@@H](C(N)=O)NC(=O)[C@@H](C)NC1=O [Tz heterobiligand]
- binding selectivity for FOLR1 (+) cells over FOLR1 (−) cells [1]: high selectivity

- affinity for recombinant human FOLR protein in ELISA (FOLR1 [2]; tested alone): low micromolar affinity
Molecule: C[C@H](O)[C@H]1NC(=O)[C@@H](Cc2c[nH]cn2)NC(=O)[C@@H](CO)NC(=O)[C@@H](Cc2c[nH]cn2)NC(=O)[C@@H](NC(=O)COCCOCCOCCNC(=O)CCCC[C@@H]2SC[C@@H]3NC(=O)N[C@@H]32)Cc2cn(nn2)CCCC[C@@H](C(N)=O)NC(=O)[C@@H](C)NC1=O [hshta] ({Biotin-AEEEA}-[Pra][dH][dS][dH][dT][dA][Lys(N3)]-NH2; triazole 1-7)
- binding selectivity for FOLR1 (+) cells over FOLR1 (−) cells [1]: higher selectivity for FOLR1 than kyeet
